Each block holds one substance with its values, some of them ahead of it.
Key:
Assay type in all cases: cell-based, human
HNSCC tumor tissue [1] = assay: M-score clinical outcome predictor: tumor microenvironment platform assays (WST-1, LDH, ATP, glucose uptake, Caspase 3/8, Ki67, H&E) input into machine-trained algorithm; design: scale not given here
From the text: Utilizing primary and late stage HNSCC patient samples (n=16) we interrogated phenotypic response to both Pembrolizumab (KEYTRUDA) and Nivolumab (OPDIVO), two FDA-approved PD-1 inhibitors, as single agents on the tumor microenvironment platform with tumor tissue from the same patient. To do this, we assayed tumor proliferation (Ki67) and apoptosis (active caspase-3), in addition to using a comprehensive panel of immunological assays to evaluate changes in the immune compartment (CD8, CD45, FOXP3, CXCR4, CD68, PDL1, PD1) and cytokine profile (IL6, IL8, IFN-g and IL12).

HNSCC tumor tissue [2] = assay: H&E staining and IHC for Ki67 and Caspase 3 in tumor microenvironment platform; settings: patient 2941
Experimental: The effects of Pembrolizumab and Nivolumab on proliferation in the tumor microenvironment platform were then evaluated. Tumor sections from the same patient cultured for 72 hours in the tumor microenvironment platform (performed in at least biological triplicate) were treated with Pembrolizumab, Nivolumab, or IgG as control. Tissue was subsequently formalin fixed and paraffin embedded, and processed for H&E staining and immuno histochemical staining (IHC) with Ki67 and Caspase 3 at day 3 in culture (T3). Baseline staining was determined at TO.
The effect of Pembrolizumab and Nivolumab on CD8^+ T cell tumor infiltration was then evaluated. Tumor sections from the same patient cultured for 72 hours in the tumor microenvironment platform were treated with Pembrolizumab, Nivolumab, or IgG as control and stained for H&E, Ki67, Caspase 3, and CD8 at day 3 in culture (T3). Baseline staining was determined at TO. […] CD8^+ T cell infiltration was evaluated in the tumor microenvironment platform with tumor tissue from the same patient, and comparisons for control vs Nivo, control vs Pembro, Nivo vs Pembro, and control vs Nivo vs Pembro for multiple patients are shown in FIG. 6 (each line represents results from the tumor microenvironment platform cultured with tumor tissue from a single individual).

HNSCC tumor tissue [3] = assay: FACS analysis for CD3 and CD8 (CD8+ T cell infiltration) in tumor microenvironment platform; settings: vs IgG control
Experimental: The effect of Pembrolizumab and Nivolumab on CD8^+ T cell tumor infiltration was then evaluated. Tumor sections from the same patient cultured for 72 hours in the tumor microenvironment platform were treated with Pembrolizumab, Nivolumab, or IgG as control and stained for H&E, Ki67, Caspase 3, and CD8 at day 3 in culture (T3). Baseline staining was determined at TO. […] To further elucidate the effects of the anti-PD-1 antibodies, FACS analysis was performed on tumor tissue from patient 2941 and patient 2942 treated with either Pembrolizumab, Nivolumab, or IgG control. […] By contrast, there was no effect of either Pembrolizumab or Nivolumab on CD8^+ T cell infiltration for patient 2942, further highlighting the differential response between individuals to PD-1 blockade. CD8^+ T cell infiltration was evaluated in the tumor microenvironment platform with tumor tissue from the same patient, and comparisons for control vs Nivo, control vs Pembro, Nivo vs Pembro, and control vs Nivo vs Pembro for multiple patients are shown in FIG. 6 (each line represents results from the tumor microenvironment platform cultured with tumor tissue from a single individual).

Tumor sections = assay: FACS of CD3+/CD45+ lymphocytes for PD-1, CEACAM, LAG3, TIM3, OX40, ILDR2, 4-1-BB, GITR, tumor sections
Experimental: (§1) To further probe the phenotypic modulation mediated by treatment with Nivolumab, tumor sections or PBNCs from the same patient cultured for 3 days (72 hours) in the tumor microenvironment platform were treated with Nivolumab or IgG control for one day, followed by flow cytometry gating for lymphocytes based on their forward and side scatter properties. Lymphocytes were further gated for expression of both CD3 and CD45, and this population of cells was analyzed by FACS for expression of PD-1, CEACAM, LAG3, TIM3, OX40, ILDR2, 4-1-BB, and GITR.

PBNCs = assay: FACS of CD3+/CD45+ lymphocytes for PD-1, CEACAM, LAG3, TIM3, OX40, ILDR2, 4-1-BB, GITR, PBNCs
Experimental: as §1

HNSCC tumor tissue [4] = assay: Granzyme B and Perforin secretion assays, HNSCC tumor sections in tumor microenvironment platform; settings: 48 hours
Experimental: FIGS. 9A and 9B show quantification of results for Granzyme B and Perforin secretion assays for HNSCC tumor tissue cultured in the tumor microenvironment platform treated with Pembrolizumab, Nivolumab, or IgG control for 24 or 48 hours.
HNSCC tumor sections from the same patient cultured for 24 or 48 hours in the tumor microenvironment platform with Pembrolizumab, Nivolumab, or IgG as control were assayed for Granzyme B and Perforin secretion. Results are shown in FIG. 9A for the tumor microenvironment platform with tumor tissue from a predicted responder and FIG. 9B for the tumor microenvironment platform with tumor tissue from a predicted non-responder. After treatment with Pembrolizumab for 48 hours, there was an increase in both Granzyme B and Perforin secretion in the tumor microenvironment platform with tissue from the predicted responder compared to treatment with the control IgG. By contrast, at 48 hours in the tumor microenvironment platform with tissue from the predicted non-responder there was no increase in Granzyme B or Perforin secretion for treatment with either Pembrolizumab or Nivolumab.

CRC tumor tissue = assay: Granzyme B and Perforin secretion assays, CRC tumor sections in tumor microenvironment platform; settings: 48 hours
Experimental: FIGS. 10A and 10B show quantification of results for Granzyme B and Perforin secretion assays for CRC tumor tissue cultured in the tumor microenvironment platform treated with Ipilimumab, Nivolumab, Ipilimumab+Nivolumab, FOLFIRI, or IgG control for 24 or 48 hours.
In another experiment, CRC tumor sections from the same patient cultured for 24 or 48 hours in the tumor microenvironment platform with Ipilimumab, Nivolumab, Ipilimumab+Nivolumab, FOLFIRI, or IgG as control were assayed for Granzyme B and Perforin secretion. Results are shown in FIG. 10A for the tumor microenvironment platform with tumor tissue from a predicted responder and FIG. 10B for the tumor microenvironment platform with tumor tissue from a predicted non-responder. After treatment with Nivolumab for 48 hours, there was an increase in Granzyme B secretion in the tumor microenvironment platform with tissue from the predicted responder compared to treatment with Ipilimumab or the control IgG. By contrast, at 48 hours in the tumor microenvironment platform with tissue from the predicted non-responder there was no increase in Granzyme B or Perforin secretion for treatment with Nivolumab.

HNSCC tumor tissue [5] = assay: M-score clinical outcome predictor: tumor microenvironment platform assays (WST-1, LDH, ATP, glucose uptake, Caspase 3/8, Ki67, H&E) input into machine-trained algorithm; design: scale not given here; remark: listed apart in the source
[6] = platform containing tumor tissue, vs IgG control
[7] = predicted responder, compared to control IgG

M-score (HNSCC tumor tissue [1]; Patient ID 2918): 27 | M-score (HNSCC tumor tissue [1]; Patient ID 2928): 19 | M-score (HNSCC tumor tissue [1]; Patient ID 2941): 41 | M-score (HNSCC tumor tissue [1]; Patient ID 2948): 12 | M-score (HNSCC tumor tissue [1]; Patient ID 2949): 11 | M-score (HNSCC tumor tissue [1]; Patient ID 2956): 10 | M-score (HNSCC tumor tissue [1]; Patient ID 2978): 33 | M-score (HNSCC tumor tissue [1]; Patient ID 2981): 6 | Caspase 3 activity (IHC) (HNSCC tumor tissue [2]; T3, associated with increased CD8^+ T cell infiltration): increased Caspase 3 activity | M-score (HNSCC tumor tissue [5]; Patient ID 2916): 13 | M-score (HNSCC tumor tissue [5]; Patient ID 2926): 31 | M-score (HNSCC tumor tissue [5]; Patient ID 2939): 5 | M-score (HNSCC tumor tissue [5]; Patient ID 2942): 28 | M-score (HNSCC tumor tissue [5]; Patient ID 2950): 16 | M-score (HNSCC tumor tissue [5]; Patient ID 2963): 5 | M-score (HNSCC tumor tissue [5]; Patient ID 2979): 9 | M-score (HNSCC tumor tissue [5]; Patient ID 2980): 12
Substance: Nivolumab
proliferation (Ki67 IHC) (HNSCC tumor tissue [2]; 72 hours, vs IgG control): diminished proliferation | CD8^+ T cell infiltration (FACS) (HNSCC tumor tissue [3]; patient 2941): increase | CD8^+ T cell infiltration (FACS) (HNSCC tumor tissue [3]; patient 2942): no effect | OX40 Tumor (% total cells) (Tumor sections; CD3+/CD45+ lymphocytes, treated one day, control 1.70): 0 % total cells | CEACAM Tumor (% total cells) (Tumor sections; CD3+/CD45+ lymphocytes, treated one day, control 2.04): 3.69 % total cells | LAG3 Tumor (% total cells) (Tumor sections; CD3+/CD45+ lymphocytes, treated one day, control 2.22): 0.52 % total cells | GITR Tumor (% total cells) (Tumor sections; CD3+/CD45+ lymphocytes, treated one day, control 2.60): 13.0 % total cells | 4-1-BB Tumor (% total cells) (Tumor sections; CD3+/CD45+ lymphocytes, treated one day, control 4.69): 7.56 % total cells | TIM3 Tumor (% total cells) (Tumor sections; CD3+/CD45+ lymphocytes, treated one day, control 17.8): 19.9 % total cells | PD-1 Tumor (% total cells) (Tumor sections; CD3+/CD45+ lymphocytes, treated one day, control 19.4): 20.5 % total cells | ILDR2 Tumor (% total cells) (Tumor sections; CD3+/CD45+ lymphocytes, treated one day, control 24.4): 17.1 % total cells | number of GITR^+/CD3^+/CD45^+ lymphocytes (Tumor sections; [6]): increase | number of ILDR2^+/CD3^+/CD45^+ lymphocytes (Tumor sections; [6]): decrease | CEACAM PBMCs (% total cells) (PBNCs; CD3+/CD45+ lymphocytes, treated one day, control 0.12): 2.74 % total cells | LAG3 PBMCs (% total cells) (PBNCs; CD3+/CD45+ lymphocytes, treated one day, control 0.14): 0.031 % total cells | OX40 PBMCs (% total cells) (PBNCs; CD3+/CD45+ lymphocytes, treated one day, control 0.25): 0 % total cells | 4-1-BB PBMCs (% total cells) (PBNCs; CD3+/CD45+ lymphocytes, treated one day, control 0.27): 0.38 % total cells | GITR PBMCs (% total cells) (PBNCs; CD3+/CD45+ lymphocytes, treated one day, control 0.30): 0.50 % total cells | ILDR2 PBMCs (% total cells) (PBNCs; CD3+/CD45+ lymphocytes, treated one day, control 1.96): 2.67 % total cells | PD-1 PBMCs (% total cells) (PBNCs; CD3+/CD45+ lymphocytes, treated one day, control 2.94): 0.31 % total cells | TIM3 PBMCs (% total cells) (PBNCs; CD3+/CD45+ lymphocytes, treated one day, control 7.91): 13.9 % total cells | ILDR2^+/CD3^+/CD45^+ and GITR^+/CD3^+/CD45^+ cell populations (PBNCs; platform containing only PBNCs, vs IgG control): No significant change | Granzyme B secretion (HNSCC tumor tissue [4]; predicted non-responder): no increase | Perforin secretion (HNSCC tumor tissue [4]; predicted non-responder): no increase | Granzyme B secretion (CRC tumor tissue; predicted non-responder): no increase | Perforin secretion (CRC tumor tissue; predicted non-responder): no increase | Granzyme B secretion (CRC tumor tissue; predicted responder, compared to Ipilimumab or control IgG): increase

M-score (HNSCC tumor tissue [1]; Patient ID 2918): 13 | M-score (HNSCC tumor tissue [1]; Patient ID 2928): 16 | M-score (HNSCC tumor tissue [1]; Patient ID 2941): 38 | M-score (HNSCC tumor tissue [1]; Patient ID 2948): 4 | M-score (HNSCC tumor tissue [1]; Patient ID 2949): 6 | M-score (HNSCC tumor tissue [1]; Patient ID 2956): 6 | M-score (HNSCC tumor tissue [1]; Patient ID 2978): 22 | M-score (HNSCC tumor tissue [1]; Patient ID 2981): 7 | M-score (HNSCC tumor tissue [5]; Patient ID 2916): 8 | M-score (HNSCC tumor tissue [5]; Patient ID 2926): 28 | M-score (HNSCC tumor tissue [5]; Patient ID 2939): 4 | M-score (HNSCC tumor tissue [5]; Patient ID 2942): 18 | M-score (HNSCC tumor tissue [5]; Patient ID 2950): 13 | M-score (HNSCC tumor tissue [5]; Patient ID 2963): 9 | M-score (HNSCC tumor tissue [5]; Patient ID 2979): 27 | M-score (HNSCC tumor tissue [5]; Patient ID 2980): 19
Substance: Pembrolizumab
CD8^+ T cell infiltration (FACS) (HNSCC tumor tissue [3]; patient 2941): but not Pembrolizumab | CD8^+ T cell infiltration (FACS) (HNSCC tumor tissue [3]; patient 2942): no effect | Granzyme B secretion (HNSCC tumor tissue [4]; predicted non-responder): no increase | Perforin secretion (HNSCC tumor tissue [4]; predicted non-responder): no increase | Granzyme B secretion (HNSCC tumor tissue [4]; [7]): increase | Perforin secretion (HNSCC tumor tissue [4]; [7]): increase
